# What was measured:
# Experiment in all cases: relative viability (nuclei count vs DMSO), 5 days (fraction); higher = more cells survive
# NCI-H1792 = test system: NCI-H1792
# Method in brief: (§1)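 Lung cancer cell lines in 1536-well plates got either a single drug or a fixed anchor-drug dose together with five library-drug doses (not always all listed) in √10 steps, by pin tool, on the day after seeding. Nuclei were counted after 5 days, and relative viability is the treated-to-vehicle ratio of nuclei counts. Values are medians of duplicate plates.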
# NCI-H1395 = test system: NCI-H1395
# Method in brief: as §1
# NCI-H2126 = test system: NCI-H2126
# Method in brief: as §1
# NCI-H1944 = test system: NCI-H1944
# Method in brief: as §1
# CAL-12T = test system: CAL-12T
# Method in brief: as §1
# RERF-LC-KJ = test system: RERF-LC-KJ
# Method in brief: as §1
# LXF-289 = test system: LXF-289
# Method in brief: as §1
# LCLC-103H = test system: LCLC-103H
# Method in brief: as §1
# LU99A = test system: LU99A
# Method in brief: as §1
# HCC-827 = test system: HCC-827
# Method in brief: as §1
# NCI-H1666 = test system: NCI-H1666
# Method in brief: as §1
# NCI-H2347 = test system: NCI-H2347
# Method in brief: as §1
# NCI-H358 = test system: NCI-H358
# Method in brief: as §1
# NCI-H3122 = test system: NCI-H3122
# Method in brief: as §1
# ABC-1 = test system: ABC-1
# Method in brief: as §1
# ChaGo-K-1 = test system: ChaGo-K-1
# Method in brief: as §1
# NCI-H1793 = test system: NCI-H1793
# Method in brief: as §1
# HCC-44 = test system: HCC-44
# Method in brief: as §1
# NCI-H322M = test system: NCI-H322M
# Method in brief: as §1
# SK-LU-1 = test system: SK-LU-1
# Method in brief: as §1
# NCI-H520 = test system: NCI-H520
# Method in brief: as §1
# NCI-H1755 = test system: NCI-H1755
# Method in brief: as §1
smiles,measurement,setting,value
CN1CCN(CCOc2cc(OC3CCOCC3)c3c(Nc4c(Cl)ccc5c4OCO5)ncnc3c2)CC1 [Saracatinib] + CC(=O)c1c(C)c2cnc(Nc3ccc(N4CCNCC4)cn3)nc2n(C2CCCC2)c1=O [Palbociclib] (partner 0.5 µM),relative viability,NCI-H1792; first compound 0.02 µM,0.567
same,relative viability,NCI-H1792; first compound 0.2 µM,0.439
same,relative viability,NCI-H1792; first compound 0.6325 µM,0.781
same,relative viability,NCI-H1792; first compound 2 µM,0.55
same,relative viability,NCI-H1395; first compound 0.02 µM,0.606
same,relative viability,NCI-H1395; first compound 0.2 µM,0.562
same,relative viability,NCI-H1395; first compound 0.6325 µM,0.598
same,relative viability,NCI-H1395; first compound 2 µM,0.516
same,relative viability,NCI-H2126; first compound 0.02 µM,0.358
same,relative viability,NCI-H2126; first compound 0.2 µM,0.344
same,relative viability,NCI-H2126; first compound 0.6325 µM,0.363
same,relative viability,NCI-H2126; first compound 2 µM,0.349
same,relative viability,NCI-H1944; first compound 0.02 µM,0.3
same,relative viability,NCI-H1944; first compound 0.2 µM,0.281
same,relative viability,NCI-H1944; first compound 0.6325 µM,0.305
same,relative viability,NCI-H1944; first compound 2 µM,0.255
same,relative viability,CAL-12T; first compound 0.02 µM,0.542
same,relative viability,CAL-12T; first compound 0.2 µM,0.409
same,relative viability,CAL-12T; first compound 0.6325 µM,0.527
same,relative viability,CAL-12T; first compound 2 µM,0.152
same,relative viability,RERF-LC-KJ; first compound 0.02 µM,1.05
same,relative viability,RERF-LC-KJ; first compound 0.2 µM,1.05
same,relative viability,RERF-LC-KJ; first compound 0.6325 µM,1.01
same,relative viability,RERF-LC-KJ; first compound 2 µM,1.06
same,relative viability,LXF-289; first compound 0.02 µM,0.621
same,relative viability,LXF-289; first compound 0.2 µM,0.582
same,relative viability,LXF-289; first compound 0.6325 µM,0.601
same,relative viability,LXF-289; first compound 2 µM,0.571
same,relative viability,LCLC-103H; first compound 0.02 µM,0.498
same,relative viability,LCLC-103H; first compound 0.2 µM,0.389
same,relative viability,LCLC-103H; first compound 0.6325 µM,0.479
same,relative viability,LCLC-103H; first compound 2 µM,0.461
same,relative viability,LU99A; first compound 0.02 µM,0.413
same,relative viability,LU99A; first compound 0.2 µM,0.336
same,relative viability,LU99A; first compound 0.6325 µM,0.349
same,relative viability,LU99A; first compound 2 µM,0.31
same,relative viability,HCC-827; first compound 0.02 µM,0.507
same,relative viability,HCC-827; first compound 0.2 µM,0.314
same,relative viability,HCC-827; first compound 0.6325 µM,0.185
same,relative viability,HCC-827; first compound 2 µM,0.167
same,relative viability,NCI-H1666; first compound 0.02 µM,0.684
same,relative viability,NCI-H1666; first compound 0.2 µM,0.474
same,relative viability,NCI-H1666; first compound 0.6325 µM,0.599
same,relative viability,NCI-H1666; first compound 2 µM,0.651
same,relative viability,NCI-H2347; first compound 0.02 µM,0.468
same,relative viability,NCI-H2347; first compound 0.2 µM,0.397
same,relative viability,NCI-H2347; first compound 0.6325 µM,0.428
same,relative viability,NCI-H2347; first compound 2 µM,0.432
same,relative viability,NCI-H358; first compound 0.02 µM,0.136
same,relative viability,NCI-H358; first compound 0.2 µM,0.118
same,relative viability,NCI-H358; first compound 0.6325 µM,0.127
same,relative viability,NCI-H358; first compound 2 µM,0.0903
same,relative viability,NCI-H3122; first compound 0.02 µM,0.194
same,relative viability,NCI-H3122; first compound 0.2 µM,0.174
same,relative viability,NCI-H3122; first compound 0.6325 µM,0.199
same,relative viability,NCI-H3122; first compound 2 µM,0.185
same,relative viability,ABC-1; first compound 0.02 µM,0.624
same,relative viability,ABC-1; first compound 0.2 µM,0.646
same,relative viability,ABC-1; first compound 0.6325 µM,0.891
same,relative viability,ABC-1; first compound 2 µM,0.622
same,relative viability,ChaGo-K-1; first compound 0.02 µM,0.896
same,relative viability,ChaGo-K-1; first compound 0.2 µM,0.533
same,relative viability,ChaGo-K-1; first compound 0.6325 µM,0.92
same,relative viability,ChaGo-K-1; first compound 2 µM,0.865
same,relative viability,NCI-H1793; first compound 0.02 µM,0.363
same,relative viability,NCI-H1793; first compound 0.2 µM,0.311
same,relative viability,NCI-H1793; first compound 0.6325 µM,0.299
same,relative viability,NCI-H1793; first compound 2 µM,0.278
same,relative viability,HCC-44; first compound 0.02 µM,1.01
same,relative viability,HCC-44; first compound 0.2 µM,0.974
same,relative viability,HCC-44; first compound 0.6325 µM,0.979
same,relative viability,HCC-44; first compound 2 µM,0.938
same,relative viability,NCI-H322M; first compound 0.02 µM,0.534
same,relative viability,NCI-H322M; first compound 0.2 µM,0.38
same,relative viability,NCI-H322M; first compound 0.6325 µM,0.46
same,relative viability,NCI-H322M; first compound 2 µM,0.306
same,relative viability,SK-LU-1; first compound 0.02 µM,0.517
same,relative viability,SK-LU-1; first compound 0.2 µM,0.297
same,relative viability,SK-LU-1; first compound 0.6325 µM,0.328
same,relative viability,SK-LU-1; first compound 2 µM,0.254
same,relative viability,NCI-H520; first compound 0.02 µM,0.249
same,relative viability,NCI-H520; first compound 0.2 µM,0.211
same,relative viability,NCI-H520; first compound 0.6325 µM,0.214
same,relative viability,NCI-H520; first compound 2 µM,0.156
same,relative viability,NCI-H1755; first compound 0.02 µM,0.448
same,relative viability,NCI-H1755; first compound 0.2 µM,0.395
same,relative viability,NCI-H1755; first compound 0.6325 µM,0.45
same,relative viability,NCI-H1755; first compound 2 µM,0.435

# Source: the supplement of paper PMC10307832
